US9346782B2, “Alkyl linked quinolinyl modulators of RORγt” (Janssen Pharmaceutica NV, priority 2013, dated 2016)
Counter-ions that a name gives are not always drawn.

How the values were obtained:
human RORγt LBD = human RORγt LBD (Homo sapiens (Human), UniProt P51449); test: RORγt Reporter Assay; format: cell-based; conditions: for IC50 / RORγt reporter Assay, % inhibition @ 6 μM: HEK293T cells; for inhibition at 6 µM: HEK-293T, read-out: RORγt reporter Assay, % inhibition @ 6 μM, HEK293T cells, 6 μM
Source text: A reporter assay was used to test functional activity of RORγt modulatory compounds on transcriptional activation driven by the RORγt LBD. Cells used in the assay were co-transfected with two constructs. The first construct, pBIND-RORγt LBD, contained the wild type human RORγt LBD fused to the DNA binding domain of the GAL4 protein. The second construct, pGL4.31 (Promega Cat no. C935A), contained multiple GAL4 responsive DNA elements upstream of firefly luciferase. […] The mutant construct was called pBIND-RORγt-AF2.
The pBIND vector contains the GAL4 DNA Binding Domain (GAL4 DBD) and the renilla luciferase gene under control of the SV40 promoter. Renilla luciferase expression serves as a control for transfection efficiency and cell viability.
The reporter assay was performed by transiently transfecting HEK293T cells with 5 μg of pBIND-RORγt LBD or pBIND-RORγt LBD-AF2 and 5 μg pGL4.31 (Promega Cat no. C935A) using Fugene 6 (Invitrogen Cat no. E2691) at a 1:6 ratio of DNA:Fugene 6 in a T-75 flask in which cells were at least 80% confluent. Twenty four hours after bulk transfection, cells were plated into 96-well plates at 50,000 cells/well in phenol-red free DMEM containing 5% Lipid Reduced FCS and Pen/Strep. Six hours after plating, cells were treated with compounds for 24 hours. Media was removed and cells were lysed with 50 μL 1× Glo Lysis Buffer (Promega). Dual Glo Luciferase Reagent (50 μL/well) was then added and firefly luciferase luminescence was read on an Envision after a ten minute incubation. Finally, Stop and Glo reagent (50 μL/well) was added and renilla luciferase luminescence was read on an Envision after a ten minute incubation. To calculate the effect of compounds on RORγt activity, the ratio of firefly to renilla luciferase was determined and plotted against compound concentration. Agonist compounds increase RORγt-driven luciferase expression, and antagonist or inverse agonist compounds decrease luciferase expression.

[1] = test system: IL-17 production by CD4 T cells; test: Human Th17 Assay; format: cell-based; conditions: Homo sapiens, 72 h, 3 days
Source text: The human Th17 assay tests the effect of RORγt modulatory compounds on IL-17 production by CD4 T cells under conditions which favor Th17 differentiation. Total CD4^+ T cells were isolated from the peripheral blood mononuclear cells (PBMC) of healthy donors using a CD4^+ T cell isolation kit II, following the manufacturer's instructions (Miltenyi Biotec). Cells were resuspended in a medium of RPMI-1640 supplemented with 10% fetal bovine serum, penicillin, streptomycin, glutamate, and β-mercaptoethanol and were added to 96-well plates at 1.5×10^5 per 100 μL per well. 50 μL of compound at titrated concentrations in DMSO were added into each well at final DMSO concentration at 0.2%. Cells were incubated for 1 hour, then 50 μL of Th17 cell differentiation medium was added to each well. The final concentrations of antibodies and cytokines (R&D Systems) in differentiation medium were: 3×10^6/mL anti-CD3/CD28 beads (prepared using human T cell activation/expansion kit, Miltenyi Biotec), 10 μg/mL anti-IL4, 10 μg/mL anti-IFNγ, 10 ng/mL IL1β, 10 ng/mL IL23, 50 ng/mL IL6, 3 ng/mL TGFβ and 20 U/mL IL2. Cells were cultured at 37° C. and 5% CO2 for 3 days. Supernatants were collected and the accumulated IL-17 in culture was measured by using MULTI-SPOT® Cytokine Plate following manufacture's instruction (Meso Scale Discovery). The plate was read using Sector Imager 6000, and IL-17 concentration was extrapolated from the standard curve. The IC50s were determined by GraphPad.

Chain of human RORγt LBD (P51449 258-518): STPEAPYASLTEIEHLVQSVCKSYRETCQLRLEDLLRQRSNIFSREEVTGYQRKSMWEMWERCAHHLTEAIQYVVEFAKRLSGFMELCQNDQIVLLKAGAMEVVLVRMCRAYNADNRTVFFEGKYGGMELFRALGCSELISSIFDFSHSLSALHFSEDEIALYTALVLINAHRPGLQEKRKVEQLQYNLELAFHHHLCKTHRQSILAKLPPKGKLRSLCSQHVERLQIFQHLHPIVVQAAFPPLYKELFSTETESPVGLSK

| SMILES | IC50 (human RORγt LBD) [nM] | inhibition at 6 µM (human RORγt LBD) [%] | RORγt reporter Assay, % inhibition @ 6 μM (human RORγt LBD) [%] | IC50 ([1]; CD4+ T) [nM] | IC50 [1] [nM] |
| --- | --- | --- | --- | --- | --- |
| C#CC(O)(c1ccc2nc(OC)c(Cc3ccc(C(F)(F)F)cc3)c(Cl)c2c1)C1CN(C(C)=O)C1 (single isomer, unassigned) [Example 7b, 1-(3-(1-(4-chloro-2-methoxy-3-(4-(trifluoromethyl)benzyl)quinolin-6-yl)-1-hydroxyprop-2-yn-1-yl)azetidin-1-yl)ethanone] | 360 | 97 | – | – | – |
| C#CC(O)(c1ccc2nc(OC)c(Cc3ccc(C(F)(F)F)cc3)c(Cl)c2c1)C1CN(C(C)=O)C1 (single isomer, unassigned) [Example 7c, 1-(3-(1-(4-chloro-2-methoxy-3-(4-(trifluoromethyl)benzyl)quinolin-6-yl)-1-hydroxyprop-2-yn-1-yl)azetidin-1-yl)ethanone] | 98 | – | 94 | 320 | – |
| COc1nc2ccc(C(C)(O)c3cncn3C)cc2c(Cl)c1Cc1ccc(C(F)(F)F)cc1 (single isomer, unassigned) [Example 9b, 1-(4-Chloro-2-methoxy-3-(4-(trifluoromethyl)benzyl)quinolin-6-yl)-1-(1-methyl-1H-imidazol-5-yl)ethanol] | 1300 | 89 | – | – | – |
| COc1nc2ccc(C(C)(O)c3cncn3C)cc2c(Cl)c1Cc1ccc(C(F)(F)F)cc1 (single isomer, unassigned) [Example 9c, 1-(4-Chloro-2-methoxy-3-(4-(trifluoromethyl)benzyl)quinolin-6-yl)-1-(1-methyl-1H-imidazol-5-yl)ethanol] | 180 | – | 98 | 280 | – |
| COc1nc2ccc(C(C)(O)c3oc(C)nc3C)cc2c(Cl)c1Cc1ccc(C(F)(F)F)cc1 (single isomer, unassigned) [Example 10a, 1-(4-Chloro-2-methoxy-3-(4-(trifluoromethyl)benzyl)quinolin-6-yl)-1-(2,4-dimethyloxazol-5-yl)ethanol] | 250 | 101 | – | – | – |
| COc1nc2ccc(C(C)(O)c3oc(C)nc3C)cc2c(Cl)c1Cc1ccc(C(F)(F)F)cc1 (single isomer, unassigned) [Example 10b, 1-(4-Chloro-2-methoxy-3-(4-(trifluoromethyl)benzyl)quinolin-6-yl)-1-(2,4-dimethyloxazol-5-yl)ethanol] | 260 | – | 96 | 640 | – |
| COc1nc2ccc(C(C)(O)c3oc(C)nc3C)cc2c(Cl)c1Cc1ccc(C(F)(F)F)cc1 (single isomer, unassigned) [Example 10c, 1-(4-Chloro-2-methoxy-3-(4-(trifluoromethyl)benzyl)quinolin-6-yl)-1-(2,4-dimethyloxazol-5-yl)ethanol] | 330 | 95 | – | 550 | – |
| CCCCC(O)(c1ccc2nc(Cl)c(-c3ccccc3)c(Cl)c2c1)c1cc(C)no1 (stereo not shown) [Example 1, 1-(2,4-Dichloro-3-phenylquinolin-6-yl)-1-(3-methylisoxazol-5-yl)pentan-1-ol.TFA] | – | – | – | – | ~3000 |
| CCC(O)(c1ccc2nc(Cl)c(-c3ccccc3)c(Cl)c2c1)c1cc(C)no1 (stereo not shown) [Example 2, 1-(2,4-Dichloro-3-phenylquinolin-6-yl)-1-(3-methylisoxazol-5-yl)propan-1-ol.TFA] | – | – | – | – | ~6000 |
| Cn1cncc1C(O)(c1ccc2nc(Cl)c(-c3ccccc3)c(Cl)c2c1)C1CC1 (stereo not shown) [Example 3, Cyclopropyl(2,4-dichloro-3-phenylquinolin-6-yl)(1-methyl-1H-imidazol-5-yl)methanol] | > 6000 | 56 | – | – | – |
| CCCCC(O)(c1ccc2nc(Cl)c(-c3ccccc3)c(Cl)c2c1)c1cncn1C (stereo not shown) [Example 4, 1-(2,4-Dichloro-3-phenylquinolin-6-yl)-1-(1-methyl-1H-imidazol-5-yl)pentan-1-ol.TFA] | 1500 | 114 | – | – | – |
| CC(C)C(O)(c1ccc2nc(Cl)c(-c3ccccc3)c(Cl)c2c1)c1cncn1C (stereo not shown) [Example 5, 1-(2,4-Dichloro-3-phenylquinolin-6-yl)-2-methyl-1-(1-methyl-1H-imidazol-5-yl)propan-1-ol] | 1300 | 118 | – | – | – |
| CCC(O)(c1ccc2nc(OC)c(Cc3ccc(S(C)(=O)=O)cc3)c(Cl)c2c1)c1cncn1C (stereo not shown) [Example 6, 1-(4-Chloro-2-methoxy-3-(4-(methylsulfonyl)benzyl)quinolin-6-yl)-1-(1-methyl-1H-imidazol-5-yl)propan-1-ol] | 1700 | 76 | – | – | – |
| C#CC(O)(c1ccc2nc(OC)c(Cc3ccc(C(F)(F)F)cc3)c(Cl)c2c1)C1CN(C(C)=O)C1 (stereo not shown) [Example 7a, 1-(3-(1-(4-Chloro-2-methoxy-3-(4-(trifluoromethyl)benzyl)quinolin-6-yl)-1-hydroxyprop-2-yn-1-yl)azetidin-1-yl)ethanone] | 230 | 95 | – | – | – |
| C#CC(O)(c1ccc2nc(OC)c(Cc3ccc(C(F)(F)F)cc3)c(Cl)c2c1)C1CN(C(=O)OC(C)(C)C)C1 (stereo not shown) [Example 8, tert-Butyl-3-(1-(4-chloro-2-methoxy-3-(4-(trifluoromethyl)benzyl)quinolin-6-yl)-1-hydroxyprop-2-yn-1-yl)azetidine-1-carboxylate] | 4000 | 71 | – | – | – |
| COc1nc2ccc(C(C)(O)c3cncn3C)cc2c(Cl)c1Cc1ccc(C(F)(F)F)cc1 (stereo not shown) [Example 9a, 1-(4-Chloro-2-methoxy-3-(4-(trifluoromethyl)benzyl)quinolin-6-yl)-1-(1-methyl-1H-imidazol-5-yl)ethanol] | 280 | 98 | – | – | – |
| COc1nc2ccc(C(C)(O)c3cnnn3C)cc2c(Cl)c1Cc1ccc(C(F)(F)F)cc1 (stereo not shown) [Example 11a, 1-(4-Chloro-2-methoxy-3-(4-(trifluoromethyl)benzyl)quinolin-6-yl)-1-(1-methyl-1H-1,2,3-triazol-5-yl)ethanol] | 110 | 102 | – | – | – |
| COc1nc2ccc(C(C)(O)c3cnc(C)n3C)cc2c(Cl)c1Cc1ccc(C(F)(F)F)cc1 (stereo not shown) [Example 12a, 1-(4-Chloro-2-methoxy-3-(4-(trifluoromethyl)benzyl)quinolin-6-yl)-1-(1,2-dimethyl-1H-imidazol-5-yl)ethanol] | 370 | 99 | – | – | – |
| COc1nc2ccc(C(C)(O)c3ccc(C)nc3C)cc2c(Cl)c1Cc1ccc(C(F)(F)F)cc1 (stereo not shown) [Example 13a, 1-(4-Chloro-2-methoxy-3-(4-(trifluoromethyl)benzyl)quinolin-6-yl)-1-(2,6-dimethylpyridin-3-yl)ethanol] | 52 | 103 | – | – | – |
| C#CC(O)(c1ccc2nc(OC)c(Cc3ccc(C(F)(F)F)cc3)c(Cl)c2c1)c1cnc(C)n1C (stereo not shown) [Example 14a, 1-(4-Chloro-2-methoxy-3-(4-(trifluoromethyl)benzyl)quinolin-6-yl)-1-(1,2-dimethyl-1H-imidazol-5-yl)prop-2-yn-1-ol] | 210 | 81 | – | – | – |
| Cc1nc(C)c(C(O)(c2ccc3nc(Cl)c(-c4ccccc4)c(Cl)c3c2)C(C)C)s1 (stereo not shown) [Example 15, 1-(2,4-Dichloro-3-phenylquinolin-6-yl)-1-(2,4-dimethylthiazol-5-yl)-2-methylpropan-1-ol] | ~500 | 99 | – | – | – |
| CCC(O)(c1ccc2nc(OC)c(Cc3ccc(C(F)(F)F)cc3)c(Cl)c2c1)C1CN(C(=O)OC(C)(C)C)C1 (stereo not shown) [Example 17, tert-Butyl-3-(1-(4-chloro-2-methoxy-3-(4-(trifluoromethyl)benzyl)quinolin-6-yl)-1-hydroxypropyl)azetidine-1-carboxylate] | 500 | 98 | – | – | – |
